Experimental data published in patent US20240334934A1, “FUNGICIDE MIXTURE” (priority 2021, published 2024).

What was measured:
Type in all cases: cell-based
[1] = tested on: Fusarium Virguliforme K6286; experiment: Efficacy of mixtures of streptimidone and CtmC, liquid culture in PDB, optical density 620 nm
[2] = tested on: Gibberella zeae (Fusarium graminearum); experiment: microbe, parasite or virus in culture; details: read-out: % Efficacy
[3] = tested on: Zymoseptoria tritici K6420; experiment: Efficacy of mixtures of streptimidone and CtmC, liquid culture in PDB, optical density 620 nm
[4] = tested on: Zymoseptoria tritici K6105; experiment: as above; details: for Emax at 1.23 ppm: K6105, Streptimidone 1.23 ppm alone (CtmC 0); for Emax at 3.7 ppm: K6105, Streptimidone 3.70 ppm alone (CtmC 0); for Emax at 11.11 ppm: K6105, Streptimidone 11.11 ppm alone (CtmC 0); for Emax at 33.33 ppm: K6105, Streptimidone 33.33 ppm alone (CtmC 0)
Microdochium nivale = experiment: as above
[5] = tested on: Fusarium Virguliforme K6285; experiment: as above
[6] = tested on: Zymoseptoria tritici K6318; experiment: as above
[7] = Streptimidone 0.14 ppm alone (CtmC 0)
[8] = Streptimidone 0.41 ppm alone (CtmC 0)
[9] = Streptimidone 1.23 ppm alone (CtmC 0)
[10] = Streptimidone 3.70 ppm alone (CtmC 0)
[11] = Streptimidone 11.11 ppm alone (CtmC 0)
[12] = Streptimidone 33.33 ppm alone (CtmC 0)
[13] = Streptimidone 100 ppm alone (CtmC 0)

C=C/C(C)=C/[C@H](C)C(=O)C[C@H](O)CC1CC(=O)NC(=O)C1 [Streptimidone]
Emax at 0.14 ppm [1, 7]: 8%
Emax at 0.41 ppm [1, 8]: 16%
Emax at 1.23 ppm [1, 9]: 14%
Emax at 3.7 ppm [1, 10]: 16%
Emax at 11.11 ppm [1, 11]: 16%
Emax at 33.33 ppm [1, 12]: 30%
Emax at 100 ppm [1, 13]: 47%
Emax at 33.33 ppm [2]: 50%
Emax at 100 ppm [2]: 63%
Emax at 0.41 ppm ([3]; K6420, Streptimidone 0.41 ppm alone (CtmC 0)): 7%
Emax at 1.23 ppm ([3]; K6420, Streptimidone 1.23 ppm alone (CtmC 0)): 17%
Emax at 3.7 ppm ([3]; K6420, Streptimidone 3.70 ppm alone (CtmC 0)): 32%
Emax at 11.11 ppm ([3]; K6420, Streptimidone 11.11 ppm alone (CtmC 0)): 48%
Emax at 33.33 ppm ([3]; K6420, Streptimidone 33.33 ppm alone (CtmC 0)): 67%
Emax at 100 ppm ([3]; K6420, Streptimidone 100 ppm alone (CtmC 0)): 83%
Emax at 0.41 ppm ([4]; K6105, Streptimidone 0.41 ppm alone (CtmC 0), lower sub-table): 7%
Emax at 1.23 ppm ([4]; lower sub-table): 17%
Emax at 1.23 ppm ([4]; upper sub-table): 27%
Emax at 3.7 ppm ([4]; lower sub-table): 32%
Emax at 3.7 ppm ([4]; upper sub-table): 39%
Emax at 11.11 ppm ([4]; lower sub-table): 48%
Emax at 11.11 ppm ([4]; upper sub-table): 59%
Emax at 33.33 ppm ([4]; lower sub-table): 67%
Emax at 33.33 ppm ([4]; upper sub-table): 81%
Emax at 100 ppm ([4]; K6105, Streptimidone 100 ppm alone (CtmC 0), lower sub-table): 83%
Emax at 0.41 ppm (Microdochium nivale; [8]): 0%
Emax at 1.23 ppm (Microdochium nivale; [9]): 0%
Emax at 3.7 ppm (Microdochium nivale; [10]): 5%
Emax at 11.11 ppm (Microdochium nivale; [11]): 8%
Emax at 33.33 ppm (Microdochium nivale; [12]): 22%
Emax at 0.14 ppm [5, 7]: 10%
Emax at 0.41 ppm [5, 8]: 21%
Emax at 1.23 ppm [5, 9]: 13%
Emax at 3.7 ppm [5, 10]: 18%
Emax at 11.11 ppm [5, 11]: 18%
Emax at 33.33 ppm [5, 12]: 26%
Emax at 100 ppm [5, 13]: 53%
Emax at 0.14 ppm [6, 7]: 0%
Emax at 0.41 ppm [6, 8]: 0%
Emax at 1.23 ppm [6, 9]: 0%
Emax at 3.7 ppm [6, 10]: 3%
Emax at 11.11 ppm [6, 11]: 8%
Emax at 33.33 ppm [6, 12]: 18%
Emax at 100 ppm [6, 13]: 44%
